# Results published in patent US9193673B2, “Derivatives of mesalazine, process of their preparation and their use in the treatment of intestinal inflammatory diseases” (SOFAR SPA, priority 2010, dated 2015).
# Columns and labels:
# [1] = Stability in murine intestinal homogenate; assay type: in vitro ADME, rat; details: rat intestinal homogenate, reference standard (concentration not given)
# Method: Such study is conducted with the aim of evaluating the stability of the compound (IV) in intestinal homogenate.
# (§1) The stability of the compound (IV) is compared to that of known reference standards.
# [2] = Stability in simulated gastric and simulated intestinal fluids; assay type: physicochemical
# Method: Such study is conducted with the aim of evaluating the stability of the compound (IV) at […] in absence of enzymes of the intestinal bacterial flora.
# as §1
# [3] = Hydrolysis in rat intestine preserved in different conditions; assay type: in vitro ADME
# Method: Such study is conducted with the aim of surveying the stability of the compound (IV) in rat intestine homogenate preserved in different conditions: frozen at […] and at −80° C.
# as §1
# [4] = test system: Caco2 cellular line; assay: Permeability on the Caco2 cellular line; assay type: in vitro ADME; details: A→B, Caco2
# Method: (§2) Such study is conducted with the aim of evaluating the capacity of the molecule to permeate the intestinal epithelium and be absorbed thereby evaluating the Papp (apparent permeability coefficient). The Papp of the compound (IV) is compared to that of the known reference standards.
# [5] = Permeability on the Caco2 cellular line; assay type: in vitro ADME; details: human, Caco-2; Apical (pH 6.5) → Basolateral (pH 7.4), Caco2; read-out: Papp A→B (nm/sec) Mean ± SD
# Method: as §2
A→B Mean mass balance % [4],Papp A→B [5],Structure (SMILES),Residue percentage ([1]; 30 min),Residue percentage ([1]; 1 hr),Residue percentage ([1]; 2 hrs),Residue percentage ([1]; 4 hrs),"% Residue ([2]; SGF, 30 min incubation)","% Residue ([2]; SGF, 60 min incubation)","% Residue ([2]; SIF, 30 min incubation)","% Residue ([2]; SIF, 60 min incubation)","Stability in rat intestine (residue %) ([3]; fresh homogenate, 15 min)","Stability in rat intestine (residue %) ([3]; fresh homogenate, 30 min)","Stability in rat intestine (residue %) ([3]; fresh homogenate, 60 min)","Stability in rat intestine (residue %) ([3]; homogenate 4° C., 15 min)","Stability in rat intestine (residue %) ([3]; homogenate 4° C., 30 min)","Stability in rat intestine (residue %) ([3]; homogenate 4° C., 60 min)","Stability in rat intestine (residue %) ([3]; intestine −80° C., 15 min)","Stability in rat intestine (residue %) ([3]; intestine −80° C., 30 min)","Stability in rat intestine (residue %) ([3]; intestine −80° C., 60 min)"
–,–,"CC[C@H]1OC(=O)[C@H](C)[C@@H](O[C@H]2C[C@@](C)(OC)[C@@H](O)[C@H](C)O2)[C@H](C)[C@@H](O[C@@H]2O[C@H](C)C[C@H](N(C)C)[C@H]2O)[C@](C)(O)C[C@@H](C)C(=O)[C@H](C)[C@@H](O)[C@]1(C)O [Erythromycin, reference compound]",83.5 ± 3.6%,84.7 ± 3.6%,95.0 ± 11.0%,97.5 ± 2.8%,0.2 ± 0.1%,0.1 ± 0.1%,98.1 ± 1.4%,100.9 ± 0.4%,–,–,–,–,–,–,–,–,–
–,–,"O=C(O)CCCc1ccc(N(CCCl)CCCl)cc1 [Chlorambucil, reference compound]",49.5 ± 7.8%,16.9 ± 2.2%,1.5 ± 0.1%,0.20 ± 0.08%,92.8 ± 2.1%,89.8 ± 1.5%,42.1 ± 0.5%,13.9 ± 0.3%,75.2 ± 3.8%,58.7 ± 2.3%,28.0 ± 1.5%,76.5 ± 5.0%,53.0 ± 13.9%,25.9 ± 5.3%,73.0 ± 1.2%,25.0 ± 6.1%,6.9 ± 1.4%
89%,0.41 ± 0.21 ×10⁻⁶ cm/s,"CC[C@]1(O)C[C@@H]2CN(CCc3c([nH]c4ccccc34)[C@@](C(=O)OC)(c3cc4c(cc3OC)N(C)[C@H]3[C@@](O)(C(=O)OC)[C@H](OC(C)=O)[C@]5(CC)C=CCN6CC[C@]43[C@@H]65)C2)C1 [Vinblastine, reference compound]",–,–,–,–,–,–,–,–,–,–,–,–,–,–,–,–,–
